Experimental data as given in US20220315572A1, “SUBSTITUTED CYANOPYRROLIDINES WITH ACTIVITY AS USP30 INHIBITORS” (MISSION THERAPEUTICS LIMITED, priority 2019, published 2022).
pEC50, pIC50: −log10 of the molar value. Where two headings read alike, the source gives them in different places.

How the values were obtained:
[1] = molecular target: T1, USP30 (Homo sapiens, UniProt Q70CQ3); experiment: USP30 biochemical IC50 assay (fluorescence polarisation); settings: for IC50: read-out: DUB IC50 (μM) USP30
T1 construct: purchased Boston Biochem E582
T1 sequence (Q70CQ3 57-517 limits assumed): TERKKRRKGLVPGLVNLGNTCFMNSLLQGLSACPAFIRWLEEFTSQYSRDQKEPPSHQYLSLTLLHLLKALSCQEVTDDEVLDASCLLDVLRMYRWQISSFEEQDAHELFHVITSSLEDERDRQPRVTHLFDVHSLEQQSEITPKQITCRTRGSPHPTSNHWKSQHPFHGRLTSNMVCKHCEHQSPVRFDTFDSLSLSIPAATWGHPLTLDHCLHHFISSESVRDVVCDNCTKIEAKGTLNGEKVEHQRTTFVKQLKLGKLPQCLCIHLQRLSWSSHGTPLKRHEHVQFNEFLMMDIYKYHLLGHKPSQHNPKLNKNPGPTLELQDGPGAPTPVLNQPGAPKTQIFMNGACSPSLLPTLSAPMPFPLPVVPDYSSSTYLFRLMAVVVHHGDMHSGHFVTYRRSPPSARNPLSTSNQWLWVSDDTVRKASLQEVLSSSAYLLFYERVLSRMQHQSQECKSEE
Method: Dilution plates were prepared at 21 times the final concentration (2100 μM for a final concentration of 100 μM) in 50% DMSO in a 96-well polypropylene V-bottom plate (Greiner #651201). A typical 8-point dilution series would be 100, 30, 10, 3, 1, 0.3, 0.1, 0.03 μM final. Reactions were performed in duplicate in black 384 well plates (small volume, Greiner 784076) in a final reaction volume of 21 μl. Either […] of 50% DMSO or diluted compound was added to the plate. USP30 (Boston Biochem #E582) was diluted in reaction buffer (40 mM Tris, pH 7.5, 0.005% Tween 20, 0.5 mg/ml BSA, 5 mM beta-mercaptoethanol) to achieve a final assay concentration of 4 nM, and 10 μl of diluted USP30 was added to the compound. Enzyme and compound were incubated for 30 min at room temp. Reactions were initiated by the addition of 50 nM of TAMRA labelled peptide linked to ubiquitin via an iso-peptide bond as fluorescence polarisation substrate. Reactions were read immediately after addition of substrate and following a 2-hour incubation at room temperature. Readings were performed on a Pherastar Plus (BMG Labtech). λ Excitation 540 nm; λ Emission 590 nm.

[2] = tested on: USP2, USP10, USP16, USP21, USP22, USP25, USP28, USP35, USP46; experiment: DUB biochemical IC50 assays, nine DUBs; settings: for fold more potent against USP30 than against the nine DUBs, minimum: lowest of USP2, USP10, USP16, USP21, USP22, USP25, USP28, USP35, USP46; for DUB selectivity preference for USP30 v 9 DUBs / IC50: range over the nine DUBs; for IC50: Ref. Ex. C excl. USP22, Ref. Ex. D excl. USP2, 46
[3] = molecular target: Cathepsin B (Homo sapiens, UniProt P07858); experiment: Cathepsin IC50, cathepsin B; assay type: biochemical
[4] = molecular target: T2, Cathepsin K (Homo sapiens, UniProt P43235); experiment: Cathepsin IC50, cathepsin K; assay type: biochemical
T2 sequence (P43235 115-329): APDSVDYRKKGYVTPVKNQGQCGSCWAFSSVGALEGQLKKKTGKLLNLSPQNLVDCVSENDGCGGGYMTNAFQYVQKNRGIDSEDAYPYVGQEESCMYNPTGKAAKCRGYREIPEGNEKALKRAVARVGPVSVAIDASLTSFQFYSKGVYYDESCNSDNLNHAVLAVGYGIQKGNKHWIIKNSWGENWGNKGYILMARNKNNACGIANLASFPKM

[5] = molecular target: Cathepsin L (Homo sapiens, UniProt P07711); experiment: Cathepsin IC50, cathepsin L; assay type: biochemical
[6] = molecular target: Cathepsin S (Homo sapiens, UniProt P25774); experiment: Cathepsin IC50, cathepsin S; assay type: biochemical
[7] = molecular target: Cathepsin V (Homo sapiens, UniProt O60911); experiment: Cathepsin IC50, cathepsin V; assay type: biochemical
[8] = tested on: Cathepsins B, K, L, S, V; experiment: Cathepsin IC50, range over B, K, L, S, V; assay type: biochemical; settings: for Selectivity preference for USP30 v cathepsins: range over cathepsins B, S; for Selectivity preference for USP30 v cathepsins / fold more potent against USP30 than against the cathepsins, minimum: K, L; for IC50: range over the five cathepsins; for fold more potent against USP30 than against the cathepsins, minimum: lowest of cathepsins B, S and V
[9] = molecular target: T3, UCHL1 (Homo sapiens, UniProt P09936); experiment: DUB biochemical IC50 assay, UCHL1
T3 sequence (P09936 1-223): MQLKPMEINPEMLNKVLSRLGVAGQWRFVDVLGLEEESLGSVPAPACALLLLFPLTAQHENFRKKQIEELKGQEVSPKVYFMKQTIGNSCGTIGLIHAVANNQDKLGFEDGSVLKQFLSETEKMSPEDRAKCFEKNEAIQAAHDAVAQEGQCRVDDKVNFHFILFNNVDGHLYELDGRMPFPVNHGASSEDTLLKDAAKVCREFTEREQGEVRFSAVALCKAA

[10] = molecular target: T4, Endogenous USP30 (Homo sapiens, UniProt Q70CQ3); experiment: USP30 endogenous cellular target engagement western blot assay (Cell TE WB); assay type: cell-based; settings: Hela cells stably overexpressing YFP-Parkin, 1 hour
T4 construct: USP30 endogenous cellular target engagement western blot (WB) assay; endogenous in cells; host or cells: HeLa stably overexpressing YFP-Parkin
T4 sequence (Q70CQ3 1-517): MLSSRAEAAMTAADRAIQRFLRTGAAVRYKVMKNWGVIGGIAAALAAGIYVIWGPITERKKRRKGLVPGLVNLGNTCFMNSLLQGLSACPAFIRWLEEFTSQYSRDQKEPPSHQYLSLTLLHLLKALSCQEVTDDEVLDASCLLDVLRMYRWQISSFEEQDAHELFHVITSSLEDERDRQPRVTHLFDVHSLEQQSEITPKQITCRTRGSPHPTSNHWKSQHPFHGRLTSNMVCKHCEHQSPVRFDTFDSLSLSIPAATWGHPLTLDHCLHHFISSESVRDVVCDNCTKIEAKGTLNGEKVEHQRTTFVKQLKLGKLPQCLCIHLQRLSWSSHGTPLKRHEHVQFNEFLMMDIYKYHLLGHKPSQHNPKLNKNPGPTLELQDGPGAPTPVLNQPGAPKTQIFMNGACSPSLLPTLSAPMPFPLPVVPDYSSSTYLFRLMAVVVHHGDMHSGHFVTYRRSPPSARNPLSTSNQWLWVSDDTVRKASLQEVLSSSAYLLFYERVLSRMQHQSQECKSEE
Method: Hela cells stably overexpressing YFP-Parkin were seeded into 6 well dishes. Once adhered, cells were treated with appropriate concentrations of test compounds or vehicle control for 1 hour at 37° C., 5% CO2. Whole cell lysates were prepared by scraping the cells into cold PBS, centrifuging and lysing in lysis buffer (50 mM Tris-base, pH 7.5, 50 mM NaCl, 1% NP-40/Igepal CA-630, 2 mM MgCl2, 10% Glycerol, 5 mM beta-mercaptoethanol, cOmplete mini tablets EDTA free (Roche), PhosStop tablets (Roche)) for 10 mins. The equivalent of 20 μg of protein from the cleared cell lysate was incubated with a final conc of 2.5 μM HA-Ahx-Ahx-Ub-VME probe at room temperature. The reaction was stopped by addition of 5×SDS sample loading buffer and proteins separated by SDS PAGE and western blotting. USP30 was detected using an anti-USP30 Sheep S746D antibody (MRC PPU Reagents and Services) and a rabbit anti sheep secondary IgG (H+L) horseradish peroxidase conjugated (Thermo #31480) and visualised using ECL reagent (GE #RPN2109) on a GE LAS4000 imager. Target engagement was measured by quantitation of the bands corresponding to USP30 and USP30 bound to the Ub-VME probe and expression of this proportion compared to vehicle treated control.
Cell TE WB: USP30 endogenous cellular target engagement western blot (WB) assay. Assays the activity of compounds against USP30 in cells using an irreversible activity probe to monitor USP30 activity.

[11] = Reference Examples, read-out: USP30 IC50
[12] = USP30 biochemical IC50 assay, exemplary compounds, read-out: IC50

Cathepsin S, sequence (P25774 115-331, species assumed): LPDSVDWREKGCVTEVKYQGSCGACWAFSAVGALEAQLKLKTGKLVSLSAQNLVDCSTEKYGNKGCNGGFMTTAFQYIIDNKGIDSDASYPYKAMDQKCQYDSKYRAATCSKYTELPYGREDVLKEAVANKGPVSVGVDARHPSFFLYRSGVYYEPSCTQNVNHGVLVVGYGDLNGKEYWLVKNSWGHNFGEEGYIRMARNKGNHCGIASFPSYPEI
Cathepsin V, sequence (O60911 114-334, species assumed): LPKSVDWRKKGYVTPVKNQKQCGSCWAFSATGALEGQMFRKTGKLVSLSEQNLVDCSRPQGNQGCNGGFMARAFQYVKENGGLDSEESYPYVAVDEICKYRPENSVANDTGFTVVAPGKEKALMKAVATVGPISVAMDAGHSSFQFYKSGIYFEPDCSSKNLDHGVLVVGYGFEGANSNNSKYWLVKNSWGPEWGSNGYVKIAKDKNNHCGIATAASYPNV
Cathepsin L, sequence (P07711 114-333, species assumed): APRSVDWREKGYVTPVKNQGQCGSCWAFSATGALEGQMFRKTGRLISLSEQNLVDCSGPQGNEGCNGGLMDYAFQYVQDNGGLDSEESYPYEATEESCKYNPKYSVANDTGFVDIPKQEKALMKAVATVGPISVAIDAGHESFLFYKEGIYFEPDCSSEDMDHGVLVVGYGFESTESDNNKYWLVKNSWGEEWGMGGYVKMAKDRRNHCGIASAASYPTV

SMILES	pIC50 [1, 11]	fold more potent against USP30 than against the nine DUBs, minimum [2] [fold]	DUB selectivity preference for USP30 v 9 DUBs [2]	IC50 [2] [µM]	IC50 [3] [µM]	IC50 [4] [µM]	IC50 [5] [µM]	IC50 [6] [µM]	IC50 [7] [µM]	Selectivity preference for USP30 v cathepsins [8]	IC50 [8] [µM]	fold more potent against USP30 than against the cathepsins, minimum [8] [fold]	IC50 [1] [µM]	IC50 [9] [µM]	fold more potent against USP30 than UCHL1 [9] [fold]	pIC50 [1, 12]	DUB selectivity preference for USP30 v UCHL1 [9]	pEC50 [10]
COc1cccc(-c2cc(C(=O)N[C@@H]3CCN(C#N)C3)on2)c1 [A, reference compound]	7.15	2.7	2.7-141	0.19 to 9.9	4.5	0.79	2.8	8.8	5.8	11-126	0.79 to 8.8	–	–	–	–	–	–	–
N#CN1CCC(NC(=O)c2cc(-c3cccc(Cl)c3)no2)C1 (stereo not shown) [B, reference compound]	7.36	8	8-232	0.35 to 10.2	2.9	1.1	0.79	2.3	4.2	18-95	0.79 to 4.2	18	–	–	–	–	–	–
C[C@H]1CN(C#N)C[C@@H]1NC(=O)c1cnc(-c2ccccc2)s1 [C, reference compound]	7.59	0.96	0.96-342	0.025 to 8.9	4.8	2.4	1.5	5.9	4	58-227	1.5 to 5.9	58	–	–	–	–	–	–
N#Cc1cccc(-c2ccn3c(C(=O)N[C@@H]4CCN(C#N)C4)cnc3c2)c1 [D]	7.39	4.6	4.6-124	0.19 to 5.1	–	–	2.3	6.9	3	56-168	2.3 to 6.9	56	–	–	–	–	–	–
N#CN1CC[C@H](C(=O)Nc2ncc(-c3ccccc3)s2)C1 [E, reference compound]	6.51	–	–	–	5.3	2.7	1	–	–	3.2-17	1 to 5.3	3.2	0.31	0.25	0.8	–	–	–
COC[C@@H]1C[C@@H](NC(=O)c2nnc(-c3cccc(C#N)c3)o2)CN1C#N [Example 2, N-((3R,5S)-1-Cyano-5-(methoxymethyl)pyrrolidin-3-yl)-5-(3-cyanophenyl)-1,3,4-oxadiazole-2-carboxamide]	–	–	186-8100	≥ 6.9	> 300	113	32.8	> 300	> 300	880-8100	32.8 to 300	–	–	> 300	–	7.43	8100	7.05
COc1ccc(C#N)cc1-c1nnc(C(=O)N[C@@H]2C[C@@H](C)N(C#N)C2)o1 [Example 5, 5-(5-Cyano-2-methoxyphenyl)-N-((3R,5R)-1-cyano-5-methylpyrrolidin-3-yl)-1,3,4-oxadiazole-2-carboxamide]	–	–	360-8800	≥ 12.4	> 300	24.5	> 300	> 300	162	720-8800	24.5 to 300	–	–	> 300	–	7.47	8800	7.14
N#CN1CCC(C(=O)Nc2nnc(-c3ccccc3)s2)C1 (stereo not shown) [F, reference compound]	6.15	–	–	–	9.8	0.86	0.24	2.1	0.82	0.34-14	0.24 to 9.8	0.34	–	3.2	4.6	–	4.6	–
CC1CC(C(=O)Nc2ncc(-c3ccccc3)s2)CN1C#N (stereo not shown) [G, reference compound]	5.36	–	–	–	–	–	–	–	–	–	–	–	4.4	6.8	1.5	–	–	–
